Source: BindingDB's records for patent US20240116947 (Chiesi Farmaceutici, 2024)

Target: T1, TGF-beta receptor type-1 (Homo sapiens, UniProt P36897)
T1 sequence (P36897 whole entry): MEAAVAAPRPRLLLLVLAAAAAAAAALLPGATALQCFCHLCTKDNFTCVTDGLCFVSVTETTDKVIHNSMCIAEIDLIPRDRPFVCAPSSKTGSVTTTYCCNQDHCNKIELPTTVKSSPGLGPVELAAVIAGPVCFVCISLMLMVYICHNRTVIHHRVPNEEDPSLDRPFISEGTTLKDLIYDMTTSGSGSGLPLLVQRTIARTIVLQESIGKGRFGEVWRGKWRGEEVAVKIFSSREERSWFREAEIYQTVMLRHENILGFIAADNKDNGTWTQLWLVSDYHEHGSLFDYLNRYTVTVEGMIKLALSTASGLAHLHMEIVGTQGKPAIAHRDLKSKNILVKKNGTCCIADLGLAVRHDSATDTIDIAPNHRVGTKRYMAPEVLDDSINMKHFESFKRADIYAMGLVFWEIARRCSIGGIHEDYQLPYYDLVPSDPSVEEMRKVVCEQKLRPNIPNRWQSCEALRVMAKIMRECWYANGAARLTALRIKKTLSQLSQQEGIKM
Test: Enzymatic Activity Assay
Procedure: The enzymatic activity of compounds of the present invention was monitored measuring the formation of ADP using the ADP-GLO Kinases assay. Following the incubation of the purified enzyme, a substrate and ATP, the produced ADP was converted into ATP, which in turn was converted into light by Ultra-Glo Luciferase. The luminescent signal positively correlated with ADP amount and kinase activity. […] All reactions/incubations were performed at 25° C. Compound and ALK5 kinase were mixed and incubated for 15 mins. […] After an incubation of 150 min, the reaction was stopped, and ADP production detected with ADP-Glo kit according to manufacturer's indications. The assay was performed in 384-well format and was validated using a selection of reference compounds that was tested in 11 point concentration-response curve.

- IC50: < 1 nM
Compound: O=C(CCN(C1COC1)C1COC1)Nc1cc(N2CCOc3cnc(-c4cc(Cl)ccc4F)cc32)ccn1 [US20240116947, Example 21]
